Test results taken from US11654413B2, “System and method for enhancing effectiveness of products generated from ionization, oxidation, photooxidation, photocatalytic, and photochemical reactions” (BIS SCIENCE LLC., priority 2021, dated 2023).
Read-outs that look alike come from different tables or passages of the source.

How the values were obtained:
[1] = test system: Staphylococcus aureus ATCC 6538; details: contact time 5 minutes
Text: The test substance was hydrogen peroxide at 1 ppm and at 0.3%, which was exposed or not exposed to photons with a wavelength from 0.001 nm-845 nm and applied to target, which included a biological medium inoculated with a viable bacteria concentration of Staphylococcus aureus ATCC 6538. Further, it may be appreciated that the control is the same microorganism.

E. coli = assay: FIG. 2 microbial reduction by photon enhanced solution; format: cell-based
microbial counts = details: 1 part per million, 5 minute contact time
Text: In an example embodiment of a system for progressive reduction of the microbial count in ambient air, a room with 1,000,000 colony forming units (CFUs) is equipped with a system for performing the methods as disclosed herein. A small micron photon/phonon enhanced antimicrobial dry fog of an enhanced oxidizing agent is continuously administered into the ambient air through an existing HVAC system at a concentration of less than 1 part per million.

Compound	Average CFU/ML [1]	CFU/ML ([1]; Replicate 1)	CFU/ML ([1]; Replicate 2)	microbial (E. coli) reduction (E. coli)	microbial reduction (microbial counts)
OO [1 ppm H2O2 no photon activation, hydrogen peroxide]	4.05E+06 CFU/ML	4.10E+06 CFU/ML	4.10E+06 CFU/ML	–	–
OO [.3% H2O2 no photon activation, hydrogen peroxide]	4.05E+06 CFU/ML	4.10E+06 CFU/ML	4.00E+06 CFU/ML	–	–
OO [hydrogen peroxide]	–	–	–	0.0%	–
OO [standard hydrogen peroxide, hydrogen peroxide]	–	–	–	–	little or no microbial reduction
